Here are results for 9 compounds from PubChem BioAssay (NCI).

Structures are written as SMILES.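 Tested at 5 concentrations; 48 h exposure; 96-well plates; endpoints linearly interpolated, else capped at highest concentration. GI50 = concentration required for 50% inhibition of growth. TGI is the concentration that stops growth completely.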 Where only a bound is given, the exact number is not on record here.

Assay in all cases: NCI anticancer screen, dose series, 48 h
The subject of test [1] is SF-268 CNS.
The test system of test [2] is SK-MEL-5 melanoma.
The subject of test [3] is OVCAR-3 ovarian.
In test [4] the test system is HL-60(TB) leukemia.
Test [5] relates to CAKI-1 renal.
Test [6] concerns ACHN renal.
Test [7] has as its system SF-539 CNS.
The subject of test [8] is SF-295 CNS.
The test system of test [9] is HT29 colon.
Test [10] has as its system LOX IMVI melanoma.

Consider `COc1ccc2c(CN3CCC(CO)CC3)cc3cc4c(cc3c2c1)OCO4`, for which the GI50 was 176 nM in [1]; 172 nM in [2]; 316 nM in test [3]; 286 nM in [4]; 289 nM in test [5]; 82.5 nM in test [6]. The GI50 is 254 nM in [7], 241 nM in [8], 134 nM in [9] and 144 nM in test [10]. The TGI in test [1] came to 2470 nM; in test [2], 495 nM; in test [3], 3390 nM; in test [4] it was 1720 nM; in test [5], 3420 nM; in [6] it was 450 nM. The TGI in test [7] was 1640 nM; in test [8], 3290 nM; in [9] it was 2600 nM; in [10], 490 nM.
As to `C=C1C(=O)OC2C1C(OC(=O)/C(C)=C/C)CC(O)(CCl)C1C(OC(C)=O)C=C(C)C21O` (centres undefined), the TGI in [1] is 32400 nM; in test [2] it was 34400 nM; in test [3] it was 23400 nM; in [4], 9390 nM; in test [5], 17700 nM; in [6], 22700 nM. The TGI is 41000 nM in test [7], > 100000 nM in test [8], 31900 nM in test [9] and 20700 nM in test [10].
Regarding `CC1=C2C(=CC(C)(CO)C2O)C(=O)C(C)(O)C12CC2` (centres undefined), the TGI stood at 15.9 nM in [1]; 3.6 nM in test [2]; 19 nM in test [3]; 6.97 nM in [4]; 18.3 nM in test [5]; 13.2 nM in [6]. The TGI in test [7] came to 15.2 nM; in test [8], 3.92 nM; in test [9] it was 44.6 nM; in [10], 9.92 nM.
For the compound `COc1cc2c3c(n(CCCO)c(=O)c2cc1OC)-c1cc2c(cc1C3=O)OCO2`, the GI50 in test [1] is 9040 nM; in test [2], 11300 nM; in test [3], 21600 nM; in test [4] it was 2340 nM; in [5], 465 nM; in [6] it was 1650 nM. Moreover, the GI50 was 1170 nM in [8], > 46500 nM in [9] and 2890 nM in test [10]. The TGI in test [1] is > 100000 nM; in [2] it was > 52900 nM; in [3], > 81900 nM; in test [4] it was 10400 nM; in [5] it was > 19600 nM; in [6] it was 9830 nM. Besides, the TGI in test [7] is 6790 nM; in [8], > 48300 nM; in [9], > 100000 nM; in test [10] it was 22900 nM.
Take `Nc1ccc(CCN2CCN(c3cccc(C(F)(F)F)c3)CC2)cc1`: the TGI in test [1] was > 100000 nM; in test [2] it was > 100000 nM; in test [3], > 100000 nM; in test [4] it was 41800 nM; in test [5], > 100000 nM; in test [6], > 100000 nM. Also, the TGI in [7], in [8], in [9] and in test [10] was > 100000 nM throughout.
As for `C[C@@H](Oc1cc(-c2cnn(C3CCNCC3)c2)cnc1N)c1c(Cl)ccc(F)c1Cl`, the GI50 in [1] is 3480 nM; in test [2], 1470 nM; in test [3] it was 3260 nM; in [4] it was 398 nM; in [5], 3390 nM; in test [6] it was 2970 nM. Further, the GI50 in test [7] was 1800 nM; in [8] it was 276 nM; in test [9], 437 nM; in test [10], 1170 nM. For the same compound, the TGI in test [1] was > 10000 nM; in test [2], 2840 nM; in [3] it was > 10000 nM; in test [4] it was 1900 nM; in test [5], > 10000 nM; in [6], > 10000 nM. The TGI in [7] is 3500 nM; in test [8], > 10000 nM; in test [9], 2310 nM; in test [10] it was 2640 nM.
`CC(C)SC1SCC2C(=O)N(C)C3(CC3C)C(=O)OCC(NC(=O)c3nc4ccccc4cc3O)C(=O)NC(C)C(=O)N(C)C1C(=O)N(C)C1(CC1C)C(=O)OCC(NC(=O)c1nc3ccccc3cc1O)C(=O)NC(C)C(=O)N2C` (centres undefined): the TGI in test [1] was 1.29 nM; in [2], < 0.1 nM; in test [3], < 0.1 nM; in test [4], < 0.1 nM; in test [5] it was 0.28 nM; in test [6], > 100000 nM. The TGI was < 0.1 nM in test [7], 8.09 nM in test [8], 2880 nM in test [9] and < 0.1 nM in test [10].
Regarding `CCN(CC)c1ccc2[nH]c3c(C(N)=O)cc(=O)c(=O)c=3oc2c1`, the GI50 is 1980 nM in test [1]; 1220 nM in [2]; 680 nM in test [3]; 1660 nM in [4]; 1090 nM in [5]; 1840 nM in test [6]. The GI50 in test [7] was 597 nM; in test [8], 1570 nM; in [9], 2970 nM; in test [10] it was 581 nM. For the same compound, the TGI is 15100 nM in [1]; 2490 nM in test [2]; 4300 nM in test [3]; 5080 nM in [4]; 3440 nM in test [5]; > 100000 nM in test [6]. For the same compound, the TGI amounted to 14100 nM in test [7], 6350 nM in test [8], 12900 nM in test [9] and 6300 nM in test [10].
Take `COc1cccc(-c2nc(-c3ccc(NS(=O)(=O)c4ccccc4)cc3)[nH]c2-c2ccnc(Br)c2)c1`: the GI50 in [1] is 3340 nM; in [2] it was 1870 nM; in test [3], 3030 nM; in test [4], 2860 nM; in [5] it was 1750 nM; in [6], 2600 nM. Further, the GI50 in test [7] was 2530 nM; in [8], 1850 nM; in test [9], 3020 nM; in test [10] it was 1560 nM. In addition, the TGI in [1] is > 100000 nM; in test [2], 3490 nM; in test [3], 17700 nM; in [4], > 100000 nM; in test [5], 5630 nM; in [6] it was > 100000 nM. The TGI in test [7] is 8030 nM; in [8], 4350 nM; in test [9] it was > 100000 nM; in test [10], 3440 nM.
